From patent US11291712B2, “Bacterial protein compositions and uses thereof” (The United States Government as Represented by the …, priority 2017, dated 2022)
Entries after “also recorded” stand apart in the source; their conditions may differ.

Legend:
[1] = system: A. baumannii strain AB5075 VIR-O and AV-T variants; assay: Antimicrobial killing assays (time-kill); type: cell-based, Acinetobacter baumannii; settings: equal mixture of VIR-O and AV-T, 1 hour, CRAMP 10 μg/mL, lysozyme 10 mg/mL, LL-37 15 μg/mL, H2O2 0.01%
Description: An equal mixture of VIR-O and AV-T variants were grown to early-log phase in 2 mL LB broth, or LB with tetracycline 6 μg/mL for strains with plasmids. A 5 μL aliquot of each culture was mixed together in 250 μL of 0.1× tryptone/yeast extract (1 g tryptone, 0.5 g yeast extract/liter). Cells were mixed by vortexing and serial dilutions were plated on 0.5×LB agar plates to assess the initial CFU's for both VIR-O and AV-T variants. Various antimicrobials were then added at the following final concentrations: CRAMP (10 μg/mL), lysozyme (10 mg/mL), LL-37 (15 μg/mL) and H2O2. (0.01%). Cells were treated for 1 hour and dilutions were plated on 0.5×LB agar plates to enumerate the surviving VIR-O and AV-T variants.

[2] = system: A. baumannii strain AB5075 VIR-O and AV-T cells; assay: Sensitivity to disinfectants; type: cell-based, Acinetobacter baumannii; settings: BZT 0.01%, BAK 0.004%, CHG 0.008%; 30 min at room temperature
Description: Overnight standing bacterial cultures at room temperature were sub-cultured in LB broth and grown at 37° C. with shaking to an OD600˜0.15. Nine hundred ninety microliters of culture were then added to tubes containing 10 μL of the appropriated disinfectants, BZT (Sigma-Aldrich), BAK (Sigma-Aldrich) and CHG (Sigma-Aldrich), respectively. Tubes were incubated at room temperature for 30 min. Cultures were then serially diluted and plated for CFU enumerations.

Row | Compound | survival of VIR-O (O) cells compared to AV-T (T) cells after treatment with the antimicrobial [1] | survival of VIR-O (O) cells compared to AV-T (T) cells after treatment with the antimicrobial ([1]; listed as hydrogen peroxide) | resistance of VIR-O (O) cells to the disinfectant compared to AV-T (T) cells [2]
1 | lysozyme | resistant; also recorded: VIR-O cells vastly outnumbered AV-T cells |  | 
2 | OO [H2O2, hydrogen peroxide] | resistant | VIR-O cells vastly outnumbered AV-T cells | 
3 | CC(C)(C)CC(C)(C)c1ccc(OCCOCC[N+](C)(C)Cc2ccccc2)cc1 [benzethonium chloride] |  |  | more resistant; also recorded: increased resistance
4 | LL-37: human antimicrobial peptide, the human orthologue of CRAMP | VIR-O cells also outnumbered AV-T; also recorded: resistant |  | 
5 | CRAMP: murine cationic antimicrobial peptide (ISRLAGLLRKGGEKIGEKLKKIGQKIKNFFQKLVPQPE; UniProt P51437 135-172, looked up) | resistant; also recorded: VIR-O cells vastly outnumbered AV-T cells |  | 
6 | benzalkonium chloride |  |  | more resistant; also recorded: increased resistance
7 | N=C(NCCCCCCNC(=N)NC(=N)Nc1ccc(Cl)cc1)NC(=N)Nc1ccc(Cl)cc1.O=C(O)[C@H](O)[C@@H](O)[C@H](O)[C@H](O)CO.O=C(O)[C@H](O)[C@@H](O)[C@H](O)[C@H](O)CO [chlorhexidine gluconate] |  |  | more resistant; also recorded: increased resistance
